Legend:
[1] = system: acute leukemia with MLLr or NPM1m; assay: Phase 1/2 clinical study, clinical activity (responses by ELN 2017); assay type: in vivo, human
Procedure: In the present test, signs of clinical activity have been observed, including decreases and normalization of bone marrow blasts, elimination of blasts in peripheral blood, and responses according to European LeukemiaNet 2017 Response Criteria. A patient with MLLr assigned to 120 mg BID in Arm A achieved MLFS (morphologic leukemia-free state), while a patient with MLLr assigned to 60 mg BID with azoles in Arm B achieved CRh (complete remission with partial hematological recovery) and CRi (complete remission with incomplete hematologic recovery). Substantial changes in several biomarkers have also been observed, including decreases in HOXA9, PBX3, and MEIS1, and increases in CD11b. These changes have been particularly notable in patients with MLLr or NPM1m.
(1) Of 43 patients enrolled, 17 patients had MLLr and 9 patients had NPM1m, with 19 evaluable at the time of data extraction and 5 responders per ELN 2017 (FIG. 7A). At 200 mg BID in Arm B, 4 evaluable patients had MLLr or NPM1m (n=1 and 3, respectively) and 1 patient achieved CRh/CRi, 1 patient achieved CRi, and 1 patient achieved MLFS. Two additional patients with MLLr also achieved response per ELN2017 at lower dose levels (CRh/CRi and MLFS).

[2] = system: HOXA9, MEIS1, PBX3, CD11b gene expression; assay: Phase 1/2 clinical study, pharmacodynamic gene expression biomarkers in bone marrow aspirate; assay type: in vivo, human
From the text: All dose levels and time points are combined.
(2) FIGS. 6A and 6B show average of the maximum percentage change of gene expression of leukemic (HOXA9, MEIS1, PBX3) and differentiation (CD11b) biomarkers in bone marrow aspirate of patients from all dose levels, for whom a baseline and post-baseline sample were collected.

OCI-AML3 cells = assay: Tumor-bearing mice transplanted with OCI-AML3 cells, with venetoclax and azacitidine, T/C (Example 13); assay type: in vivo; conditions: oral, 21 days
Procedure: The present compound was weighed and dissolved in 0.5 w/v % Methyl Cellulose 400 solution to give the compound concentrations of 20 mg/mL and 10 mg/mL. Venetoclax was weighed and suspended in a mixed solution of Phosal 50 propylene glycol (60%)/Polyethylene glycol-400 (30%)/Ethanol (10%) to give the compound concentration of 5 mg/mL. Azacitidine was weighed and dissolved in saline to give the compound concentration of 0.3 mg/mL.
OCI-AML3 cells (DSMZ) were intradermally implanted around the ventral region of 6-week old NOD. CB17-PrkdcSCID/J mice (female, The Jackson Laboratory Japan) at 1×10^6 cells/mouse. […] The tumor volume was measured over time from the start of the administration, and the reduction effect of the tumor volume due to the compound-administration was evaluated. The tumor volume was calculated by the following formula using short axis and long axis of the tumor measured with an electronic caliper (Mitutoyo).
The control administration group in which only the solvent was administered and the test substance administration group were compared, and T/C was calculated using the following formula to evaluate the antitumor effect.

[3] = 200 mg BID Arm B, 4 evaluable patients with MLLr or NPM1m
[4] = patients with MLLr or NPM1m AML, all dose levels and time points (FIG. 5)
[5] = patients with target mutations, all dose levels (FIGS. 6A, 6B)
[6] = patients, notable with MLLr or NPM1m (Example 3)

`C=C1C[C@@H]2CC[C@H]1[C@@H](C(=O)N1CCC3(CC1)CN(c1ncncc1Oc1ccc(F)cc1C(=O)N(C(C)C)C(C)C)C3)N2` [the present compound, 5-fluoro-2-[(4-{7-[(1S,3S,4R)-5-methylidene-2-azabicyclo[2.2.2]octane-3-carbonyl]-2,7-diazaspiro[3.5]nonan-2-yl}pyrimidin-5-yl)oxy]-N,N-di(propan-2-yl)benzamide] was tested, and the “patients who achieved CRh/CRi” value [1, 3] was 1 patient, the “patients who achieved CRi” value [1, 3] was 1 patient and the “patients who achieved MLFS” value [1, 3] was 1 patient. For the same compound, the “response achieved (ELN 2017)” value ([1]; a patient with MLLr, 60 mg BID with azoles Arm B) was “CRh and CRi”, the “gene expression of CD11b in bone marrow aspirate” value [2, 4] was “increases” and the “gene expression of HOXA9, PBX3 and MEIS1 in bone marrow aspirate” value [2, 4] was “Clear decreases”. For the same compound, the “gene expression of CD11b in bone marrow aspirate” value [2, 5] was “increases”, the “gene expression of HOXA9, PBX3 and MEIS1 in bone marrow aspirate” value [2, 5] was “Clear decreases” and the “change in CD11b” value [2, 6] was “increases”. For the same compound, the “change in HOXA9, PBX3 and MEIS1” value [2, 6] was “decreases”, the T/C (OCI-AML3 cells; 100 mg/kg) was 47.1% and the T/C (OCI-AML3 cells; 200 mg/kg) was 34.3%.
